The source made the active and inactive calls. The rule behind the calls is not given here.
What was measured:
Enterococcus faecalis [1] = test: Antibacterial activity against vancomycin-resistant Enterococcus faecalis AUS-RBWH-VRE-01 assessed as reduction in […] growth incubated for 24 hrs by spectrophotometry based broth microdilution assay; type: functional, organism-based
Staphylococcus aureus [2] = test: Antibacterial activity against methicillin-resistant Staphylococcus aureus AUS-RBWH-MRSA-02 assessed as reduction in […] growth at 0.01 to 30 uM incubated for 24 hrs by spectrophotometry based broth microdilution assay; type: functional, organism-based
Pseudomonas aeruginosa [3] = test: Antibacterial activity against VIM producing Pseudomonas aeruginosa SA-EP-KFUH-40 assessed as reduction in […] growth at 0.01 to 30 uM incubated for 24 hrs by spectrophotometry based broth microdilution assay; type: functional, organism-based
Escherichia coli [4] = test: Antibacterial activity against Escherichia coli ATCC 11775 assessed as reduction in […] growth at 0.01 to 30 uM incubated for 24 hrs by spectrophotometry based broth microdilution assay; type: functional, organism-based
Klebsiella pneumoniae [5] = test: Antibacterial activity against OXA-48-producing Klebsiella pneumoniae SA-Rd-KAMC-014 assessed as reduction in […] growth at 0.01 to 30 uM incubated for 24 hrs by spectrophotometry based broth microdilution assay; type: functional, organism-based
Acinetobacter baumannii = test: Antibacterial activity against OXA-23-producing Acinetobacter baumannii SA-Rd-KAMC-083 assessed as reduction in […] growth at 0.01 to 30 uM incubated for 24 hrs by spectrophotometry based broth microdilution assay; type: functional, organism-based
Pseudomonas aeruginosa [6] = test: Antibacterial activity against IMP producing Pseudomonas aeruginosa UAE-DBI-ZMH-91 assessed as reduction in […] growth at 0.01 to 30 uM incubated for 24 hrs by spectrophotometry based broth microdilution assay; type: functional, organism-based
Escherichia coli [7] = test: Antibacterial activity against Escherichia coli KUW-kw-AmH-11 assessed as reduction in […] growth at 0.01 to 30 uM incubated for 24 hrs by spectrophotometry based broth microdilution assay; type: functional, organism-based
Bacillus subtilis = test: Antibacterial activity against Bacillus subtilis ATCC 6633 assessed as reduction in […] growth at 0.01 to 30 uM incubated for 24 hrs by spectrophotometry based broth microdilution assay; type: functional, organism-based
Candida albicans = test: Antifungal activity against Candida albicans ATCC 90028 assessed as reduction in fungal growth at 0.01 to 30 uM incubated for 24 hrs by spectrophotometry based broth microdilution assay; type: functional, organism-based
Klebsiella pneumoniae [8] = test: Antibacterial activity against NDM-producing Klebsiella pneumoniae SA-Rd-KAMC-037 assessed as reduction in […] growth at 0.01 to 30 uM incubated for 24 hrs by spectrophotometry based broth microdilution assay; type: functional, organism-based
SW-620 = test: Cytotoxicity against human SW620 cells assessed as reduction in cell viability upto 30 uM incubated for 48 hrs by MTT assay; type: cell-based; details: sw-620, 48 h
NCI-H460 = test: Cytotoxicity against human NCI-H460 cells assessed as reduction in cell viability upto 30 uM incubated for 48 hrs by MTT assay; type: cell-based; details: nci-h460, 48 h
Staphylococcus aureus [9] = test: Antibacterial activity against Staphylococcus aureus ATCC 9144 assessed as reduction in […] growth at 0.01 to 30 uM incubated for 24 hrs by spectrophotometry based broth microdilution assay; type: functional, organism-based
Streptococcus pyogenes = test: Antibacterial activity against Streptococcus pyogenes ATCC 12344 assessed as reduction in […] growth at 0.01 to 30 uM incubated for 24 hrs by spectrophotometry based broth microdilution assay; type: functional, organism-based
Enterococcus faecalis [10] = test: Antibacterial activity against vancomycin-resistant Enterococcus faecalis AUS-RBWH-VRE-01 assessed as fold reduction in growth by measuring colony formation unit at 30 uM incubated for 24 hrs by time kill assay; type: functional
Enterococcus faecalis [11] = test: Antibacterial activity against vancomycin-resistant Enterococcus faecalis AUS-RBWH-VRE-01 assessed as colony formation unit at 30 uM incubated for 24 hrs by time kill assay; type: functional
[12] = Prodrug conversion in vancomycin-resistant Enterococcus faecalis AUS-RBWH-VRE-01 assessed as hydrolysis product butenolide formation at 30 uM incubated for 24 hrs by UHPLC-DAD-ESIMS analysis; type: ADME
[13] = Prodrug conversion in vancomycin-resistant Enterococcus faecalis AUS-RBWH-VRE-01 assessed as hydrolysis product butenolide formation at 30 uM incubated for 3-6 hrs by UHPLC-DAD-ESIMS analysis; type: ADME
[14] = Prodrug conversion in vancomycin-resistant Enterococcus faecalis AUS-RBWH-VRE-01 assessed as hydrolysis product trivirensol B formation at 30 uM incubated for 24 hrs by UHPLC-DAD-ESIMS analysis; type: ADME
[15] = Prodrug conversion in vancomycin-resistant Enterococcus faecalis AUS-RBWH-VRE-01 assessed as hydrolysis product divirensol B formation at 30 uM incubated for 24 hrs by UHPLC-DAD-ESIMS analysis; type: ADME
[16] = Enterococcus faecalis, AUS-RBWH-VRE-01, 24 h, read-out: IC50

Structure (SMILES)	IC50 (Enterococcus faecalis [1])	Activity (Staphylococcus aureus [2])	Activity (Pseudomonas aeruginosa [3])	Activity (Escherichia coli [4])	Activity (Klebsiella pneumoniae [5])	Activity (Acinetobacter baumannii)	Activity (Pseudomonas aeruginosa [6])	Activity (Escherichia coli [7])	Activity (Bacillus subtilis)	Activity (Candida albicans)	Activity (Klebsiella pneumoniae [8])	Activity (SW-620)	Activity (NCI-H460)	Activity (Staphylococcus aureus [9])	Activity (Streptococcus pyogenes)	IC50 (Enterococcus faecalis [1]; [16]) [µM]	fold change (FC) (Enterococcus faecalis [10])	Drug metabolism [12]	also measured
CC(C)[C@H]1CC[C@@](O)(COC(=O)/C(=C/[C@@H]2[C@@H](C(C)C)CC[C@@]3(OC(=O)/C(=C/[C@H]4C=C(CO)CC[C@@H]4C(C)C)CO)COC(=O)[C@@H]23)CO)[C@H]2C(=O)OCC(C(=O)O)=C[C@H]12	Not Active	inactive	inactive	inactive	inactive	inactive	inactive	inactive	inactive	inactive	inactive	Non-Toxic	Non-Toxic	inactive	inactive				
CC(C)[C@H]1CC[C@@](O)(COC(=O)C2=C[C@@H]3[C@@H](C(C)C)CC[C@@](O)(COC(=O)/C(=C/[C@H]4C5=C(CC[C@@H]4C(C)C)COC5=O)CO)[C@H]3C(=O)OC2)[C@H]2C(=O)OCC(C(=O)O)=C[C@H]12		inactive	inactive	inactive	inactive	inactive	inactive	inactive	inactive	inactive	inactive	Non-Toxic	Non-Toxic	inactive	inactive	1.6	10000		
CCCCCCCCCC(=O)N[C@@H](Cc1c[nH]c2ccccc12)C(=O)N[C@H](CC(N)=O)C(=O)N[C@@H](CC(=O)O)C(=O)N[C@@H]1C(=O)NCC(=O)N[C@@H](CCCN)C(=O)N[C@@H](CC(=O)O)C(=O)N[C@H](C)C(=O)N[C@@H](CC(=O)O)C(=O)NCC(=O)N[C@H](CO)C(=O)N[C@@H]([C@H](C)CC(=O)O)C(=O)N[C@@H](CC(=O)c2ccccc2N)C(=O)O[C@@H]1C																			Activity (Enterococcus faecalis [11]): 50 CFU/ml
CC(C)[C@H]1CC[C@@](O)(COC(=O)/C(=C/[C@H]2C=C(CO)CC[C@@H]2C(C)C)CO)[C@H]2C(=O)OCC(C(=O)O[C@@]34CC[C@H](C(C)C)[C@@H](/C=C(\CO)C(=O)O)[C@@H]3C(=O)OC4)=C[C@H]12	Not Active	inactive	inactive	inactive	inactive	inactive	inactive	inactive	inactive	inactive	inactive	Non-Toxic	Non-Toxic	inactive	inactive				
CC(C)[C@H]1CC[C@@](O)(COC(=O)/C(=C/[C@@H]2[C@@H](C(C)C)CC[C@@]3(O)COC(=O)[C@@H]23)CO)[C@@H](C(=O)O)[C@@H]1/C=C(\CO)C(=O)O[C@@]12CC[C@H](C(C)C)[C@@H](/C=C(\CO)C(=O)O)[C@@H]1C(=O)OC2		inactive	inactive	inactive	inactive	inactive	inactive	inactive	inactive	inactive	inactive	Non-Toxic	Non-Toxic	inactive	inactive	10	1000	Metabolite_Notdetected	Drug metabolism [13]: Metabolite_Detected
CC(C)[C@H]1CC[C@@](O)(COC(=O)C2=C[C@@H]3[C@@H](C(C)C)CC[C@@](O)(COC(=O)/C(=C/[C@@H]4[C@@H](C(C)C)CC[C@@]5(O)COC(=O)[C@@H]45)CO)[C@H]3C(=O)OC2)[C@H]2C(=O)OCC(C(=O)O)=C[C@H]12		inactive	inactive	inactive	inactive	inactive	inactive	inactive	inactive	inactive	inactive	Non-Toxic	Non-Toxic	inactive	inactive	8	10000	Metabolite_Notdetected	Drug metabolism [14]: Metabolite_Detected
CC(C)[C@H]1CC[C@@](O)(COC(=O)C2=C[C@@H]3[C@@H](C(C)C)CC[C@@](O)(COC(=O)/C(=C/[C@H]4C=C(CO)CC[C@@H]4C(C)C)CO)[C@H]3C(=O)OC2)[C@H]2C(=O)OCC(C(=O)O)=C[C@H]12	Not Active	inactive	inactive	inactive	inactive	inactive	inactive	inactive	inactive	inactive	inactive	Non-Toxic	Non-Toxic	inactive	inactive				
CC(C)[C@H]1CC[C@@](O)(COC(=O)/C(=C/[C@@H]2[C@@H](C(C)C)CC[C@@](O)(COC(=O)/C(=C/[C@H]3C4=C(CC[C@@H]3C(C)C)COC4=O)CO)[C@H]2C(=O)O)CO)[C@H]2C(=O)OCC(C(=O)O)=C[C@H]12		inactive	inactive	inactive	inactive	inactive	inactive	inactive	inactive	inactive	inactive	Non-Toxic	Non-Toxic	inactive	inactive	1	10000		
CC(C)[C@H]1CC[C@@](O)(COC(=O)/C(=C/[C@@H]2[C@@H](C(C)C)CC[C@@]3(O)COC(=O)[C@@H]23)CO)[C@H]2C(=O)OCC(C(=O)O)=C[C@H]12		inactive	inactive	inactive	inactive	inactive	inactive	inactive	inactive	inactive	inactive	Non-Toxic	Non-Toxic	inactive	inactive			Metabolite_Notdetected	Activity (Enterococcus faecalis [10]): Active; Drug metabolism [15]: Metabolite_Detected
CC(C)[C@H]1CC[C@@](O)(COC(=O)/C(=C/[C@H]2C3=C(CC[C@@H]2C(C)C)COC3=O)CO)[C@H]2C(=O)OCC(C(=O)O)=C[C@H]12		inactive	inactive	inactive	inactive	inactive	inactive	inactive	inactive	inactive	inactive	Non-Toxic	Non-Toxic	inactive	inactive				Activity (Enterococcus faecalis [10]): Active

Source: ChEMBL document CHEMBL4334511, “Trivirensols: Selectively Bacteriostatic Sesquiterpene Trimers from the Australian Termite Nest-Derived Fungus Trichoderma virens CMB-TN16” (J Nat Prod, 2019)
